Legend:
Assay in all cases: relative viability (nuclei count vs DMSO), 5 days (fraction); higher = more cells survive
[1] = compound: Cc1ccc(C(=O)Nc2ccc(CN3CCN(C)CC3)c(C(F)(F)F)c2)cc1C#Cc1cnc2cccnn12 [Ponatinib]
How it was run: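 For viability, nuclei in each treated well were divided by nuclei in vehicle wells and the median across plates was taken. Lung cancer cell lines in 1536-well plates were pinned with five library-drug doses (not always all listed) spaced by √10, cultured 5 days without medium change, and imaged at 4× after Hoechst staining, with plates passing only at control CV below 25% and at least one doubling.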

[2] = compound: Cc1ccc(C(=O)Nc2ccc(CN3CCN(C)CC3)c(C(F)(F)F)c2)cc1C#Cc1cnc2cccnn12 [Ponatinib] + CC(C)C[C@H](NC(=O)[C@H](Cc1ccccc1)NC(=O)c1cnccn1)B(O)O [Bortezomib] (partner 0.002 µM)
How it was run: (§1)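 The day after seeding in 1536-well plates, lung cancer cell lines were treated by pin tool with a single drug, or with a fixed anchor-drug dose together with five library-drug doses (not always all listed) in √10 steps. After 5 days, a combined fix-and-stain solution (final 0.05% Triton X-100, 1% formaldehyde, 1 ug/ml Hoechst) was added. Nuclei counted on 4× images gave relative viability as treated counts over vehicle counts, reported as the median of duplicate plates.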

[3] = compound: Cc1ccc(C(=O)Nc2ccc(CN3CCN(C)CC3)c(C(F)(F)F)c2)cc1C#Cc1cnc2cccnn12 [Ponatinib] + Nc1nc2[nH]cc(CCc3ccc(C(=O)N[C@@H](CCC(=O)O)C(=O)O)cc3)c2c(=O)[nH]1 [Pemetrexed] (partner 0.2 µM)
How it was run: as §1

[4] = compound: Cc1ccc(Nc2nccc(N(C)c3ccc4c(C)n(C)nc4c3)n2)cc1S(N)(=O)=O [Pazopanib] + N=C(N)NC(=N)NCCc1ccccc1 [Phenformin] (partner 250 µM)
How it was run: as §1

Cell Line	relative viability ([1]; 0.002 µM)	relative viability ([1]; 0.006325 µM)	relative viability ([1]; 0.06325 µM)	relative viability ([1]; 0.2 µM)	relative viability ([2]; first compound 0.002 µM)	relative viability ([2]; first compound 0.006325 µM)	relative viability ([2]; first compound 0.06325 µM)	relative viability ([2]; first compound 0.2 µM)	relative viability ([3]; first compound 0.002 µM)	relative viability ([3]; first compound 0.006325 µM)	relative viability ([3]; first compound 0.06325 µM)	relative viability ([3]; first compound 0.2 µM)	relative viability ([4]; first compound 0.01 µM)	relative viability ([4]; first compound 0.03162 µM)	relative viability ([4]; first compound 0.1 µM)	relative viability ([4]; first compound 0.3162 µM)	relative viability ([4]; first compound 1 µM)
201T	0.928	0.986	1.07	0.963	1.06	1.11	1.13	1.08	0.319	0.324	0.346	0.352	0.444	0.425	0.438	0.455	0.462
A549	0.809	0.975	1.02	0.917										0.169	0.178	0.142	0.18
A-427	0.928	1.05	0.958	0.81	0.889	0.976	1.02	0.905	0.928	0.986	0.981	0.908	0.309	0.4	0.286	0.332	0.288
ABC-1	0.865	0.852	0.96	0.751	0.347	0.286	0.299	0.283					0.23	0.242		0.196	0.269
BEN	0.765	0.967	1.01	0.847	0.643	0.843	0.85	0.672	0.678	0.718	0.749	0.767		0.281	0.288	0.266	0.238
CAL-12T	0.929	0.951	1.15	0.97	0.634	0.9	1.39	1.09	1.13	1.14	1.31	1.21	0.595	0.616	0.544	0.664	0.581
COR-L23	0.887	0.941	0.97	0.876	0.862	0.875	0.818	0.8	0.19	0.193	0.189	0.19	0.44	0.459	0.41	0.463	0.493
COR-L 105	1.01	0.933	1.18	1.05	0.819	0.787	1.01	0.999	1.09	1.07	1.25	1.04	0.446	0.553	0.52	0.724	0.636
Calu-6	0.987	0.967	1.02	0.905	1.01	1.11	0.953	0.856									
ChaGo-K-1	0.872	0.988	1	0.88	0.786	1.01	1.14	0.968	0.264	0.258	0.262	0.246	0.474	0.428	0.535	0.547	0.495
EBC-1	0.926	1.05	1.16	0.924	0.543	0.585	0.65	0.534									
EKVX	0.899	1.06	1.24	1.06	1.01	1.11	1.13	1.02	0.382	0.493	0.427	0.374	0.227	0.224	0.207	0.225	0.234
EMC-BAC-2	0.821	0.973	1.04	0.822	0.967	1.02	1.06	1.04	0.436	0.404	0.468	0.395		0.513	0.498	0.536	0.537
EPLC-272H	0.818	1.01	1.14	0.801	0.76	0.894	0.856	0.88	0.397	0.359	0.388	0.408		0.311	0.308	0.347	0.392
H3255	0.867	0.97	0.984	0.908	0.659	0.792	0.806	0.76	0.527	0.607	0.614	0.546	0.298	0.33	0.365	0.306	0.367
HARA	0.844	0.972	0.938	0.914	1.06	1.1	1.21	0.861	0.262	0.23	0.246	0.282	0.43	0.363	0.486	0.467	0.479
HCC-15	0.972	1.06	1.1	1.02	0.919	1.04	1.16	1	0.223	0.217	0.226	0.224	0.476	0.507	0.498	0.519	0.505
HCC-44	0.908	0.929	0.942	0.958	0.825	0.804	1.07	0.872	0.636	0.653	0.688	0.622	0.216	0.213	0.256	0.234	0.213
HCC-78	0.8	0.994	1.03	0.874	0.476	0.48	0.62	0.421	0.576	0.885	0.865	0.894	0.531	0.696	0.626	0.635	0.622
HCC-366	1.03	1.04	1.05	0.989	1.04	1.13	1.14	0.982	0.128	0.154	0.191	0.201	0.566	0.642	0.547	0.608	0.638

From the supplement of paper PMC10307832
